IC50 and MIC data for 27 compounds are collected here from patent US12692253B2, “Antimicrobial compounds and methods” (Curza Global, LLC, priority 2019, dated 2026).

Where only a bound is given, the exact number is not on record here.

The test system of assay [1] is E. coli S30 extract (bacterial protein synthesis). Kind of assay: E. coli S30 extract coupled transcription-translation luciferase assay (inhibition of bacterial protein synthesis). Format: biochemical. The conditions noted are these: class by IC50 or % inhibition @ 1 μM, read-out: S30 IC50 (μM/% inhib.). Here is the method:
E. coli S30 extract: Inhibition of bacterial protein synthesis was determined using the E. coli S30 Extract System for Circular DNA (Promega catalog #L-2010) and Luciferase Assay Reagent (Promega catalog #E1500) with slight modifications to a published protocol. Fyfe, C., Sutcliffe, J. A. and Grossman, T. H. (2012) “Development and characterization of a Pseudomonas aeruginosa in vitro coupled transcription-translation assay system for evaluation of translation inhibitors” J. Microbiol. Methods 90(3), 256-261.
Compounds were serial diluted in 0.5 mL microcentrifuge tubes by mixing and transferring 50 μL from the highest concentration to 50 μL of water, mixing and transferring 50 μL of this 2-fold dilution to 50 μL of water. This mixing and transferring was repeated so that there are a total of 8 tubes with serial dilutions of compound at 10× the desired screening concentration that are ultimately diluted to 1× by the addition of S30 luciferase synthesis mixture. Serial dilutions of compounds were added (2 μL) to wells in a black round bottom 96-well plate. Water (2 μL) was used as a “no inhibitor” control in 4 wells/plate. No DNA control reaction mixture (20 μL; see below) was used as a control in 4 wells/plate for background luminescence. S30 luciferase synthesis mixture (18 μL; see below) was added to wells with compounds or water mixture and incubated at 37° C. for 1 hour. Reactions were stopped by transferring to 4° C. refrigerator for 5 minutes then 25 μL of luciferase activity mix was added. Luminescence was measured using a BioTek Synergy HTX plate reader. % Inhibition was determined relative to no inhibitor controls. • S30 luciferase synthesis mixture: • 445 μL S30 extract, circular • 712 μL S30 Premix without amino acids • 4.45 μL pBESTluc™ DNA (1 μg/μL) • 78 μL complete amino acid mixture • 267 μL water • No DNA control: • 20 μL S30 extract, circular • 32 μL S30 Premix without amino acids • 7 μL complete amino acid mixture • 21 μL water Rabbit Reticulocyte lysate

The target of assay [2] is Rabbit Reticulocyte Lysate (eukaryotic protein synthesis). Nature of the assay: Rabbit reticulocyte lysate luciferase assay (inhibition of eukaryotic protein synthesis). The format is biochemical. The settings on record: class by IC50 or % inhibition @ 1 μM, read-out: Rabbit reticulocyte IC50 (μM/% inhib.). Here is the method:
Inhibition of eukaryotic protein synthesis was determined using the Rabbit Reticulocyte Lysate System, Nuclease-Treated from Promega (catalog #L-4960) with slight modifications to the manufacturer's protocol. Compounds were serial diluted in 0.5 mL microcentrifuge tubes by mixing and transferring 50 μL from the highest concentration to 50 μL of water, mixing and transferring 50 μL of this 2-fold dilution to 50 μL of water. This mixing and transferring was repeated so that there are a total of 8 tubes with serial dilutions of compound at 10× the desired screening concentration that are ultimately diluted to 1× by the addition of rabbit reticulocyte luciferase synthesis mixture. Serial dilutions of compounds were added (2.5 μL) to wells in a black round bottom 96-well plate. Water (2.5 μL) was used as a “no inhibitor” control in 4 wells/plate. No RNA control reaction mixture (2 μL; see below) was used as a control in 4 wells/plate for background luminescence. Rabbit reticulocyte luciferase synthesis mixture (22.5 μL; see below) was added to wells with compounds or water mixture and incubated at 30° C. for 90 minutes. Luciferase assay reagent (25 μL) was added with luminescence measured using a BioTek Synergy HTX plate reader. % Inhibition was determined relative to no inhibitor controls.
Rabbit Reticulocyte Luciferase Synthesis Mixture:
• 1,000 μL rabbit reticulocyte lysate • 5.7 μL Luciferase Control RNA (1 μg/μL) • 26 μL complete amino acid mixture • 395 μL water • No RNA Control • 70 μL rabbit reticulocyte lysate • 2 μL complete amino acid mixture • 28 μL water Minimum Inhibitory Concentration (MIC)

The subject of a further assay is E. coli (Ec). Kind of assay: Broth microdilution minimum inhibitory concentration (MIC), CLSI. Format: cell-based. The conditions noted are these: Escherichia coli, growth medium supplemented with sodium bicarbonate, read-out: E. coli + bicarb MIC. On the procedure:
A certified BSL-2 laboratory was used for testing. Compounds were evaluated using the broth microdilution minimum inhibitory concentration (MIC) and minimum bactericidal concentration (MBC) assays defined by Clinical and Laboratory Standards Institute (CLSI) in the M26-A guideline against S. aureus (Sa), E. coli (Ec), K. pneumoniae (Kp), A. baumannn (Ab), E. faecalis (Ef) and P. aeruginosa (Pa).
MICs were determined using the Clinical Laboratory and Standards Institute (CLSI) Broth Microdilution Method with slight modification. Clinical and Laboratory Standards Institute (2012). “Methods for dilution antimicrobial susceptibility tests for bacteria that grow aerobically; approved standard, 9th ed. M07-A9 Clinical and Laboratory Standards Institute, Wayne, PA” Serial two-fold dilutions of compounds are prepared in sterile clear round-bottom 96-well plates.
To prepare microdilution trays, two-fold dilutions of antimicrobial agent are prepared in growth medium: Cation-Adjusted Mueller-Hinton Broth (CAMHB), or CAMHB supplemented with sodium bicarbonate (6.25 or 25 mM final concentration prepared from a 1.0M stock solution) or CAMHB supplemented with heat inactivated human serum (Fisher Cat. #BP2657100) 0-50% by adding 200 µL of the highest concentration to be tested (64 μg/mL, for example) in row A, mixing and transferring 100 μL from row A to 100 μL growth medium in row B, then repeating the mixing and transferring through row H of the 96-well plate, discarding the excess […] remaining. This slight modification to the CLSI protocol enables evaluation of MICs for 3 compounds per plate in triplicate, albeit with only 8 compound dilutions (CLSI protocol enables 2 compounds in triplicate with 10 dilutions). Bacterial suspensions are added to a final concentration of 5×10^4 CFU/well by adding 5 μL of a 1:10 dilution of a 0.5 McFarland suspension (1×10^8 CFU/mL) for each bacterium evaluated. Bacterial suspensions were prepared using the growth method described by CLSI. Well-isolated colonies (3-5 from an agar plate) were selected using a sterile loop and used to inoculate a tube containing 4 mL of CAMHB. The cultures are incubated at 35±2° C. until it achieves or exceeds the turbidity of the 0.5 McFarland standard, determined by measuring A600 (usually two to six hours). When growth exceeds a 0.5 McFarland standard, the turbidity is adjusted with broth to be equivalent to a 0.5 McFarland standard.

As to `CC(C)(N)C(=O)N1CCN(C(=O)Nc2ccn(-c3ccc(CN4C[C@@H]5[C@@H](N)[C@@H]5C4)nc3)c(=O)n2)CC1` [Compound 57], the IC50 in assay [1] and in assay [2] was at least 1 µM throughout. `CC(C)(N)C(=O)N1CCN(C(=O)Nc2ccn(-c3ccc(CN4CCC5(CCC(N)CC5)CC4)cc3)c(=O)n2)CC1` [Compound 55]: the IC50 in assay [1] was under 0.5 µM; in assay [2], at least 1 µM. Taken in the same sequence, the figures for `CCOC(=O)C(c1ccc(-n2ccc(NC(=O)N3CCN(C(=O)C(C)(C)N)CC3)nc2=O)cc1)N1C[C@@H]2[C@@H](N)[C@@H]2C1` (some centres unmarked) [Compound 10] were at least 1 µM and at least 1 µM. In the same order, the values of `CC(C)(N)C(=O)N1CCN(C(=O)Nc2ccn(-c3ccc(CCN4C[C@@H]5[C@H](N)[C@@H]5C4)cc3)c(=O)n2)CC1` [Compound 90] are at least 1 µM and at least 1 µM.

As for `C[C@](N)(CN)C(=O)N1CCN(C(=O)Nc2ccn(-c3ccc(CN4C[C@@H]5[C@@H](N)[C@@H]5C4)cc3)c(=O)n2)CC1` [Compound 44], the IC50 in assay [1] and in assay [2] was at least 1 µM each time. As to `CC(C)(N)C(=O)N1CCN(C(=O)Nc2ccn(-c3ccc(CCN4C[C@H]5CNC[C@H]5C4)cc3)c(=O)n2)CC1` [Compound 159], the IC50 in assay [1] and in assay [2] was at least 1 µM throughout.

Take `CC(C)(N)C(=O)N1CCN(C(=O)Nc2ccn(-c3cc(CN4C[C@@H]5[C@@H](N)[C@@H]5C4)cc(C(F)(F)F)c3)c(=O)n2)CC1` [Compound 5]: the IC50 in assay [1] and in assay [2] was at least 1 µM throughout.

`CC(C)(N)C(=O)N1CCN(C(=O)Nc2ccn(-c3ccc(CN4C[C@@H]5[C@@H](N)[C@@H]5C4)c(C(F)(F)F)c3)c(=O)n2)CC1` [Compound 6]: the IC50 in assay [1] and in assay [2] was at least 1 µM in each case.

With `NC[C@@H]1[C@H]2CN(Cc3ccc(-n4ccc(NC(=O)N5CCN(C(=O)C6(CN)CC6)CC5)nc4=O)cc3)C[C@@H]12` [Compound 70], the IC50 in assay [1] was at least 1 µM. Besides, the MIC in the assay on E. coli (Ec) was under 8 µg/mL. Consider `CC(C)(N)C(=O)N1CCN(C(=O)Nc2ccn(-c3ccc(CN4CCN5CCNCC5C4)cc3)c(=O)n2)CC1` (centres unmarked) [Compound 78], for which the IC50 in assay [1] and in assay [2] was at least 1 µM throughout. As for `C[C@](N)(CO)C(=O)N1CCN(C(=O)Nc2ccn(-c3ccc(CN4C[C@@H]5[C@@H](N)[C@@H]5C4)c(C(F)(F)F)c3)c(=O)n2)CC1` [Compound 11], the IC50 in assay [1] and in assay [2] was at least 1 µM throughout.

In the case of `CC(C)(N)C(=O)N1CCN(C(=O)Nc2ccn(-c3ccc(CN4C[C@@H]5CN[C@@H]5C4)cc3)c(=O)n2)CC1` [Compound 79], the IC50 in assay [1] and in assay [2] was at least 1 µM in each case.

Consider `N[C@@H]1[C@H]2CN(CCc3cccc(-n4ccc(NC(=O)N5CCN(C(=O)C6(N)CCC6)CC5)nc4=O)c3)C[C@@H]12` [Compound 88], for which the IC50 in assay [1] and in assay [2] was at least 1 µM throughout. Regarding `CC(Cc1ccc(-n2ccc(NC(=O)N3CCN(C(=O)C(C)(C)N)CC3)nc2=O)cc1)N1C[C@@H]2[C@@H](N)[C@@H]2C1` (some centres unmarked) [Compound 98], the IC50 in assay [1] and in assay [2] was at least 1 µM each time.

Regarding `CC(C)(N)CC(=O)N1CCN(C(=O)Nc2ccn(-c3ccc(CN4C[C@@H]5[C@@H](N)[C@@H]5C4)c(C(F)(F)F)c3)c(=O)n2)CC1` [Compound 9], in assay [1], the IC50 was at least 1 µM. The MIC with E. coli (Ec) is over 32 µg/mL. Taken in the same sequence, the figures for `CC(C)(N)C(=O)N1CCN(C(=O)Nc2ccn(-c3ccc(CCN4C[C@@H]5[C@@H](N)[C@@H]5C4)cc3)c(=O)n2)CC1` [Compound 84] were at least 1 µM and over 32 µg/mL.

Regarding `CC(C)(N)C(=O)N1CCN(C(=O)Nc2ccn(-c3ccc(C(C)(C)CN4C[C@@H]5[C@@H](CN)[C@@H]5C4)cc3)c(=O)n2)CC1` [Compound 118], the IC50 in assay [1] and in assay [2] was at least 1 µM throughout. With `CC(C)(N)C(=O)N1CCN(C(=O)Nc2ccn(-c3ccc(CN4CCC5(CC5N)C4)cc3)c(=O)n2)CC1` (centres unmarked) [Compound 22], the values for the IC50 in assay [1] and in assay [2] were under 0.5 µM and at least 1 µM, respectively. For `N[C@@H]1[C@H]2CN(CCc3cccc(-n4ccc(NC(=O)N5CCNCC5)nc4=O)c3)C[C@@H]12` [Compound 87], the IC50 in assay [1] and in assay [2] was at least 1 µM each time. As for `CC(C)(N)C(=O)N1CCN(C(=O)Nc2ccn(-c3cccc(CCN4C[C@@H]5[C@@H](N)[C@@H]5C4)c3)c(=O)n2)CC1` [Compound 86], the IC50 in assay [1] and in assay [2] was at least 1 µM in each case. Consider `CC(C)(N)C(=O)N1CCN(C(=O)Nc2ccn(-c3ccc(CCN4CC5(CC(N)C5)C4)cc3)c(=O)n2)CC1` [Compound 92], for which the results for the IC50 in assay [1] and in assay [2] were under 0.5 µM and at least 1 µM, respectively. In the same order, the values of `NC[C@H](N)C(=O)N1CCN(C(=O)Nc2ccn(-c3ccc(CN4C[C@@H]5[C@@H](N)[C@@H]5C4)cc3)c(=O)n2)CC1` [Compound 43] are at least 1 µM and at least 1 µM.

For the compound `CC(CN1C[C@@H]2[C@@H](N)[C@@H]2C1)c1ccc(-n2ccc(NC(=O)N3CCN(C(=O)C(C)(C)N)CC3)nc2=O)cc1` (some centres unmarked) [Compound 97], the IC50 in assay [1] and in assay [2] was at least 1 µM throughout. In the case of `COc1cc(-n2ccc(NC(=O)N3CCN(C(=O)C(C)(C)N)CC3)nc2=O)ccc1CCN1C[C@@H]2[C@H](N)[C@@H]2C1` [Compound 104], the IC50 in assay [1] and in assay [2] was at least 1 µM in each case.

`Cc1cc(-n2ccc(NC(=O)N3CCN(C(=O)[C@@](C)(N)CO)CC3)nc2=O)ccc1CN1C[C@@H]2[C@@H](N)[C@@H]2C1` [Compound 1]: the IC50 in assay [1] is under 0.5 µM; in assay [2] it was at least 1 µM. As for `CC(C)(N)C(=O)N1CCN(C(=O)Nc2ccn(-c3cccc(CCN4C[C@H]5CNC[C@H]5C4)c3)c(=O)n2)CC1` [Compound 158], the IC50 in assay [1] is at least 1 µM.

Consider `CC(C)(N)C(=O)N1CCN(C(=O)Nc2ccn(-c3ccc(C(C)(C)CN4CC5CC5(CN)C4)cc3)c(=O)n2)CC1` (centres unmarked) [Compound 119], for which the IC50 in assay [1] and in assay [2] was at least 1 µM each time.
